Data on three compounds can be found in PMC6749389, “Synthesis and In Vitro Anti-Toxoplasma gondii Activity of Novel Thiazolidin-4-one Derivatives” (Molecules, 2019).

Data set [1] can be described thus: Solubility under the protocol conditions. The note with it: compounds dissolved in DMSO and diluted in medium. The format is physicochemical. As to the method: Among the 43 compounds tested derivatives 81, 96, 97, 100–104 were insoluble under the protocol conditions and, consequently, they were eliminated from further experiments.
Compounds were dissolved in dimethyl sulfoxide (DMSO, Sigma-Aldrich, St. Louis, MO, USA) to 125 mM. The final concentration of DMSO in the compounds dilutions was not higher than 1.00%. Drug, sulfadiazine [4-amino-N-(2-pyrimidinyl)benzenesulfonamide] (S8626, Sigma-Aldrich) was dissolved in 1M sodium hydroxide (NaOH, Sigma-Aldrich) to 400 mM. Final concertation of NaOH in sulfadiazine dilutions was not higher than 2.5%. Ready solution sulfadiazine and trimethoprim in weight ratio 5:1 (Sul-Tridin 24%, 200 mg/mL [800 mM] + 40 mg/mL [137.78 mM]– ScanVet Poland). Dilution of the all compounds and drugs were freshly prepared before the cells were exposed in appropriate medium.

Usually melting point stands for the temperature of the solid-liquid transition.

`O=C(O)CC1SC(=NN=Cc2ccccc2O)N(c2ccc(Cl)cc2)C1=O` (stereo not drawn) [Compound 81, [3-(4-Chlorophenyl)-2-{[(2-hydroxyphenyl)methylidene]hydrazinylidene}-4-oxo-1,3-thiazolidin-5-yl]acetic acid] yielded a melting point of 234 to 236 °C. The “solubility under the protocol conditions” value in data set [1] is listed as “insoluble”.
The compound `CCOc1cc(C=NN=C2SC(=CC(=O)OC)C(=O)N2c2ccccc2Cl)ccc1O` [Compound 96, Methyl [3-(2-chlorophenyl)-2-{[(3-ethoxy-4-hydroxyphenyl)methylidene]hydrazinylidene}-4-oxo-1,3-thiazolidin-5-ylidene]acetate] returned a melting point of 216 to 218 °C. The “solubility under the protocol conditions” value in data set [1] is given as “insoluble”.
The matching figures for `COC(=O)C=C1SC(=NN=Cc2ccccc2O)N(c2ccc(Cl)cc2)C1=O` [Compound 97, Methyl [3-(4-chlorophenyl)-2-{[(2-hydroxyphenyl)methylidene]hydrazinylidene}-4-oxo-1,3-thiazolidin-5-ylidene]acetate]: 214 to 216 °C and “insoluble”.
